The source made the active and inactive calls. No cut-off for these calls is given here.
How the values were obtained:
[1] = tested on: Human immunodeficiency virus 1; experiment: Antiviral activity against wild type Human immunodeficiency virus 1 infected human MT4 cells assessed as inhibition of virus-induced cytopathic effect after 4 days by MTT assay; format: functional, organism-based; conditions: Human immunodeficiency virus 1, MT4, 96 h
[2] = Cytotoxicity against mock infected Homo sapiens (human) MT4 cells assessed as cell viability by MTT assay; format: cell-based
[3] = tested on: Human immunodeficiency virus 1; experiment: Antiviral activity against Human immunodeficiency virus 1 harboring reverse transcriptase K103N, Y181C double mutant infected human MT4 assessed as inhibition of virus-induced cytopathic effect after 4 days by MTT assay; format: functional, organism-based
[4] = tested on: Human immunodeficiency virus 1; experiment: Antiviral activity against Human immunodeficiency virus 1 harboring reverse transcriptase Y181C mutant infected human MT4 assessed as inhibition of virus-induced cytopathic effect after 4 days by MTT assay; format: functional, organism-based; conditions: Human immunodeficiency virus 1, 96 h
[5] = tested on: Human immunodeficiency virus 1; experiment: Antiviral activity against efavirenz-resistant Human immunodeficiency virus 1 harboring reverse transcriptase K103R, V179D, P225H triple mutant infected human MT4 assessed as inhibition of virus-induced cytopathic effect after 4 days by MTT assay; format: functional, organism-based

Compound | EC50 [1] [µM] | CC50 [2] [µM] | Activity [3] | EC50 [4] [µM] | Activity [5]
O=C(OCCN1C(=O)c2ccccc2C1=O)c1cccc(F)c1 | 75 | > 100 |  |  | 
O=C(OCCN1C(=O)c2ccccc2C1=O)c1cc(F)ccc1Cl | > 100 | > 100 |  |  | 
O=C(OCCOc1ccc(Br)cc1)c1ccc(Cl)c([N+](=O)[O-])c1 | > 59 | 59 |  |  | 
CCCCCc1ccc(C(=O)OCCN2C(=O)c3ccccc3C2=O)cc1 | 14 | > 100 |  |  | 
CC(CN1C(=O)c2ccccc2C1=O)OC(=O)c1cc(F)ccc1F (racemic) | > 100 | > 100 |  |  | 
O=C(OCCN1C(=O)c2ccccc2C1=O)c1cc(F)ccc1F | 0.2 | > 100 |  |  | 
O=C(OCCN1C(=O)c2ccccc2C1=O)c1ccc(Cl)c(Cl)c1 | 0.7 | > 100 |  |  | 
CC(COC(=O)c1cc(F)ccc1F)N1C(=O)c2ccccc2C1=O (racemic) | > 100 | > 100 |  |  | 
O=C(OCCN1C(=O)c2ccccc2C1=O)c1cc([N+](=O)[O-])ccc1Cl | > 30 | 30 |  |  | 
O=C(OCCN1C(=O)c2ccccc2C1=O)c1ccccc1 | 55 | > 100 |  |  | 
O=C(OCCN1C(=O)c2ccccc2C1=O)c1cccc([N+](=O)[O-])c1 | 69 | > 100 |  |  | 
O=C(OCCOc1ccc([N+](=O)[O-])cc1)c1ccc(Cl)c([N+](=O)[O-])c1 | > 47 | 47 |  |  | 
CCC(C(=O)OCCN1C(=O)c2ccccc2C1=O)c1ccccc1 (racemic) | 16 | > 100 |  |  | 
Cc1cc(C(=O)OC2Cc3cccc4cccc2c34)ccc1Br (racemic) | > 100 | 8 |  |  | 
O=C(OCCN1C(=O)c2ccccc2C1=O)c1ccc2ccccc2c1 | > 100 | > 100 |  |  | 
O=C(OCN1C(=O)c2ccccc2C1=O)c1cc(F)ccc1F | > 100 | > 100 |  |  | 
Cc1cccc(C(=O)OCCN2C(=O)c3ccccc3C2=O)c1 | 82 | > 100 |  |  | 
O=C(OCCN1C(=O)c2ccccc2C1=O)c1ccccc1[N+](=O)[O-] | 80 | > 100 |  |  | 
O=C(/C=C/c1ccccc1)OCCN1C(=O)c2ccccc2C1=O | 50 | > 100 |  |  | 
O=C(OCCN1C(=O)c2ccccc2C1=O)c1cccc(F)c1F | > 100 | > 100 |  |  | 
O=C(OCCN1C(=O)[C@H]2CCCC[C@H]2C1=O)c1cc(F)ccc1F | > 100 | > 100 |  |  | 
CC(C)(C)c1ccc2c(c1)C(=O)N(CCOC(=O)c1cc(F)ccc1F)C2=O | > 100 | > 100 |  |  | 
O=C(OCCN1C(=O)c2ccccc2C1=O)c1ccc(Br)cc1 | > 100 | > 100 |  |  | 
O=C(OCCN1C(=O)c2ccccc2C1=O)c1ccc(F)cc1F | > 100 | > 100 |  |  | 
Cc1ccc(F)cc1C(=O)OCCN1C(=O)c2ccccc2C1=O | 47 | > 100 |  |  | 
O=C(OCCN1C(=O)c2ccccc2C1=O)c1cc(F)ccc1Br | 35 | > 100 | inactive | 90 | inactive
O=C(OCCN1C(=O)c2ccccc2C1=O)c1cc(C(F)(F)F)ccc1F | > 100 | > 100 |  |  | 
O=C(OCCN1C(=O)c2ccccc2C1=O)c1ccc([N+](=O)[O-])cc1Cl | 15 | > 100 |  |  | 

Compound | EC50 [1] [µM] | CC50 [2] [µM] | Activity [3] | EC50 [4] [µM] | Activity [5]
O=C(OCCN1C(=O)[C@H]2CCCC[C@H]2C1=O)c1ccc(Cl)c([N+](=O)[O-])c1 | > 28 | 28 |  |  | 
O=C(OCCS(=O)(=O)c1ccccc1)c1ccc(Cl)c(Cl)c1 | > 19 | 19 |  |  | 
Cc1cc(C(=O)OCCN2C(=O)c3ccccc3C2=O)ccc1Br | 60 | > 100 |  |  | 
O=C(OCCN1C(=O)c2ccccc2C1=O)c1ccc(Cl)nc1 | > 100 | > 100 |  |  | 
O=C(OCCN1C(=O)c2ccccc2C1=O)c1cccc(Cl)c1 | 93 | > 100 |  |  | 
O=C(OCCc1c[nH]c2ccccc12)c1ccc(Cl)c([N+](=O)[O-])c1 | > 6 | 6 |  |  | 
O=C(OCCN1C(=O)c2ccccc2C1=O)c1cc(Cl)ccc1F | > 100 | > 100 |  |  | 
O=C(OC1Cc2cccc3cccc1c23)c1ccc(Cl)c([N+](=O)[O-])c1 (racemic) | > 100 | 1.6 |  |  | 
O=C(OCCN1C(=O)c2ccccc2C1=O)c1cc(F)cc(F)c1 | > 100 | > 100 |  |  | 
O=C(OCCN1C(=O)[C@H]2CC=CC[C@H]2C1=O)c1ccc(Cl)c([N+](=O)[O-])c1 | > 36 | 36 |  |  | 
Cc1cc(C(=O)OCCN2C(=O)c3ccccc3C2=O)c(C)o1 | 28 | > 100 |  |  | 
Cc1ccc2c(c1)C(=O)N(CCOC(=O)c1cc(F)ccc1F)C2=O | > 100 | > 100 |  |  | 
O=C(OCCN1C(=O)c2ccccc2C1=O)c1cc(Cl)cc(Cl)c1 | 27 | > 100 |  |  | 
O=C(OC1Cc2cccc3cccc1c23)c1ccc(Cl)c(Cl)c1 (racemic) | > 100 | 42 |  |  | 
O=C(OCCCN1C(=O)c2ccccc2C1=O)c1ccc(Cl)c([N+](=O)[O-])c1 | > 100 | > 100 |  |  | 
O=C(OCCN1C(=O)c2ccccc2C1=O)c1ccc(F)c(F)c1 | > 100 | > 100 |  |  | 
O=C(OCCN1C(=O)[C@H]2CC=CC[C@H]2C1=O)c1cc(F)ccc1F | > 100 | > 100 |  |  | 
O=C(OCCN1C(=O)c2ccccc2C1=O)c1ccccc1Cl | 80 | > 100 |  |  | 
O=C(OCCN1C(=O)c2ccccc2C1=O)c1ccc(Cl)c([N+](=O)[O-])c1 | 0.7 | > 100 |  |  | 
O=C(OCCCN1C(=O)c2ccccc2C1=O)c1cc(F)ccc1F | > 100 | > 100 |  |  | 
O=C(OCN1C(=O)c2ccccc2C1=O)c1ccc(Cl)c([N+](=O)[O-])c1 | > 11 | 11 |  |  | 
CC(C)(C)c1ccc(C(=O)OCCN2C(=O)c3ccccc3C2=O)cc1 | > 92 | 92 |  |  | 
CC(CN1C(=O)c2ccccc2C1=O)OC(=O)c1ccc(Cl)c([N+](=O)[O-])c1 (racemic) | > 34 | 34 |  |  | 
O=C(OCCN1C(=O)c2ccccc2C1=O)c1cc([N+](=O)[O-])ccc1F | > 100 | > 100 |  |  | 
O=C(OCCN1C(=O)c2ccccc2C1=O)c1c(F)cccc1F | 49 | > 100 |  |  | 
Cc1ccc2c(c1)C(=O)N(CCOC(=O)c1ccc(Cl)c([N+](=O)[O-])c1)C2=O | > 81 | 81 |  |  | 
O=C(OCCN1C(=O)c2ccccc2C1=O)c1cccnc1Cl | > 100 | > 100 |  |  | 
